US9327013B2, “Activity enhancer for anticancer agent” (TOKYO UNIVERSITY OF SCIENCE FOUNDATION, priority 2011, dated 2016)
Square brackets hold non-standard residues; d marks the D form. Ends that are not written are not given here. Peptide text beside a SMILES is read from it. NMeE = CN[C@@H](CCC(=O)O)C(=O)O

Experiment: Stability of peptide in human serum (residual adhesion inhibitory activity after serum incubation)
Type: in vitro ADME
Conditions: for stability of activity in human serum (in words): 500 μg/mL in 90% human serum, 0 to 56 hours, FIGS. 2A to 2D; for residual adhesion inhibitory activity after serum treatment: untreated FNIII14 = 100
Experimental: FNIII14 (500 μg/mL), each of the modified peptides (500 μg/mL), or a solution thereof was incubated in human serum (final concentration 90%; 0.01% of sodium azide as a preservative having been added thereto) under a condition of 37° C. and 5% CO2 for determined periods in a range of from 0 to 56 hours. Thereafter, each sample was diluted with DMEM (-) such that the peptide concentration in each well would be 25 μg/mL, and was inoculated onto a 96-well tissue culture plate together with A375SM cells prepared at 1.5×10^4/well, the 96-well tissue culture plate having been coated with 0.5 μg/mL of FN. After the plate was subjected to culturing for a certain time, […] of a PBS (-) solution containing 4% of formalin and 5% of sucrose was gently added to wells, and left to stand at room temperature for 1 hour, whereby the cells were immobilized. After the immobilization, the number of cells observed in predetermined four fields was counted and taken as the total number of cells. Non-adhered cells were removed by washing with a PBS (-) solution three times, and then the number of adhered cells in the same four fields as those mentioned above was counted under a microscope. Assuming that the adhesion inhibitory activity of FNIII14 that was not subjected to the treatment with serum was 100, the ratio of the residual adhesion inhibitory activity of FNIII14 or the modified peptide remaining after the serum treatment was evaluated in terms of percentage. In FIGS. 2A to 2C, white diamonds represent the results obtained using FNIII14, white squares represent the results obtained using Ace-FNIII14, white circles represent the results obtained using Met-FNIII14, and white triangles represent the results obtained using D-FNIII14. In FIG. 2D, black circles represent the activity of FNIII14, and black triangles represent the activity of D-Glu-FNIII14.

| Molecule | stability of activity in human serum (in words) (37° C.) | increase of activity in the serum (90% human serum, 37° C.) | residual adhesion inhibitory activity after serum treatment (90% human serum, 37° C.) | resistance to decomposition in human serum (aminopeptidase or the like in human serum) | time at which decomposition tendency was exhibited in serum (long term stability over 60 hours, FIG. 2D) | residual adhesion inhibitory activity after serum treatment (after 20 hours in 90% human serum, 37° C., FIG. 2A) |
| --- | --- | --- | --- | --- | --- | --- |
| CC[C@H](C)[C@H](NC(=O)[C@@H](NC(=O)[C@H](Cc1ccc(O)cc1)NC(=O)[C@@H](NC(=O)[C@@H](NC(=O)[C@H](Cc1ccc(O)cc1)NC(=O)[C@H](CCC(=O)O)NC(=O)[C@@H](NC(=O)CNC(=O)[C@@H]1CCCN1C(=O)[C@H](CCC(=O)O)NC(=O)[C@H](CC(C)C)NC(=O)CNC(=O)[C@@H](NC(=O)[C@@H](NC(=O)[C@@H](NC(=O)[C@H](C)NC(=O)[C@@H](CCC(=O)O)NC(=O)[C@@H](N)[C@@H](C)O)[C@@H](C)O)[C@@H](C)CC)[C@@H](C)O)[C@@H](C)O)[C@@H](C)O)[C@@H](C)CC)C(C)C)C(=O)N[C@@H](C)C(=O)N[C@@H](CC(C)C)C(=O)O [D-Glu-FNIII14, T-[D-Glu]-ATITGLEPGTEYTIYVIAL] (H-T[dE]ATITGLEPGTEYTIYVIAL-OH; N-terminus and C-terminus assumed) | did not exhibit a decrease of its activity in the serum | ≥ 20% | over 100% | exhibited resistance to decomposition | ≥ 50 h |  |
| CC[C@H](C)[C@H](NC(=O)[C@@H](NC(=O)[C@H](Cc1ccc(O)cc1)NC(=O)[C@@H](NC(=O)[C@@H](NC(=O)[C@H](Cc1ccc(O)cc1)NC(=O)[C@H](CCC(=O)O)NC(=O)[C@@H](NC(=O)CNC(=O)[C@@H]1CCCN1C(=O)[C@H](CCC(=O)O)NC(=O)[C@H](CC(C)C)NC(=O)CNC(=O)[C@@H](NC(=O)[C@@H](NC(=O)[C@@H](NC(=O)[C@H](C)NC(=O)[C@H](CCC(=O)O)N(C)C(=O)[C@@H](N)[C@@H](C)O)[C@@H](C)O)[C@@H](C)CC)[C@@H](C)O)[C@@H](C)O)[C@@H](C)O)[C@@H](C)CC)C(C)C)C(=O)N[C@@H](C)C(=O)N[C@@H](CC(C)C)C(=O)O [Met-FNIII14, [N-Me-Glu]^2-FNIII14] (H-T[NMeE]ATITGLEPGTEYTIYVIAL-OH; N-terminus and C-terminus assumed) | more stabilized than FNIII14 |  |  |  |  |  |
| Ac-TEATITGLEPGTEYTIYVIAL (N-terminus assumed) [Ace-FNIII14] | more stabilized than FNIII14 |  |  |  |  |  |
| TEATITGLEPGTEYTIYVIAL [FNIII14, reference compound] | rapidly lost its activity within 2 hours |  |  |  |  | about 60% |
